{"source": "paper PMC7849180", "about": "(Frontiers in Pharmacology, 2020)", "key": {"[1]": {"test": "Accumulated excretion recovery in urine and feces", "type": "in vivo, human", "settings": "200 mg jaktinib fasted", "protocol": "For MAD cohorts, blood samples were collected at 0, 0.25, 0.5, 1, 1.5, 2, 3, 4, 5, 6, 8 and 12 h on day 1; 0 h on day 2, 3, 4, 6 and 7; 0, 0.25, 0.5, 1, 1.5, 2, 3, 4, 5, 6, 8, 12, 24, 36 and 48 h on day 10. In food effect cohort, blood samples were collected at 0, 0.25, 0.5, 1, 1.5, 2, 3, 4, 5, 6, 8, 12, 24, 36, 48, 72, 96 and 120 h in period one of group A; 0, 0.25, 0.5, 1, 1.5, 2, 3, 4, 5, 6, 8, 12, 24, 36 and 48 h in period two of group A and the two periods of group B. Blood samples were centrifuged at 3,000 rpm for 10 min at 2–8 °C and stored at -80 °C until liquid chromatography-mass spectrophotometry (LC-MS/MS) analysis. Urine and feces samples were collected in period one of group A of food effect cohort with the intervals 0, 0–6, 6–12, 12–24, 24–48, 48–72, 72–96, 96–120 and 0–120 h, respectively.\nUrine and feces PK parameter was accumulated excretion recovery ratio from time zero to 120 h (Fe0–120h)."}, "[2]": {"test_system": "JNK", "test": "Phosphorylation of c-Jun by JNK", "type": "biochemical", "from_the_text": "Suzhou Zelgen Biopharmaceuticals Co., Ltd. Jaktinib Hydrochloride Tablets Chemical Drug Class 1 New Drug has been completed. The ongoing toxicity tests include a long-term 39-week toxicity test in Beagle dogs by oral administration, a reproductive toxicity test in rats during the teratogenic sensitive period, and a reproductive toxicity test in rabbits during the teratogenic sensitive period.\nPreclinical Pharmacodynamic Study\nStudy on the in vitro Pharmacodynamic Effects of ZG0163 at the […]\nIn this study, the effects of ZG0163 was similar to those of positive control compounds, ZG0164 and ZG0178.\nStudy on the in vitro Pharmacodynamic Effects of ZG0163 at the Cellular Level (Ba/F3-EpoR-JAK2V617F cells)\nJAK2V617F cell line, the compound ZG0163 was able to induce apoptosis of pathogenic cells and eliminate abnormal cell proliferation by inhibiting the JAK-STAT signaling pathway, thus achieving treatment efficacy in myeloproliferative neoplasms. […]\ncell line, manifested as significant inhibition of phosphorylation of JAK2 and its downstream signaling proteins ERK and STAT5. The effects of ZG0163 was similar to those of positive control compounds, ZG0164 and ZG0178.\nEpoR-JAK2V617F, which was similar to those of positive control compounds, ZG0164"}, "[3]": {"test": "PK, single intragastric dose", "type": "in vivo, beagles", "protocol": "Overall 2.0 (1.0-2.0) 0.593 ± 0.194 2.96 ± 1.07 3.03 ± 1.09 3.99 ± 0.40 2.24 ± 0.88 30.5 Male 2.0 (2.0-8.0) 0.765 ± 0.105 5.76 ± 3.51 5.82 ± 3.48 5.28 ± 2.11 2.31 ± 0.89 […] 61 Male 8.0 (4.0-12.0) 1.49 ± 0.33 16.6 ± 8.2 16.7 ± 8.2 7.73 ± 2.48 3.72 ± 0.79 Female 2.0 (2.0-6.0) 1.73 ± 0.75 17.4 ± 8.9 17.4 ± 8.9 6.33 ± 1.62 2.54 ± 1.06 […] (multiple […] Pharmacokinetics of single dose intravenous administration in beagles. After intravenous administration of 12.2 mg ZG0128 (the average weight of the beagles was about 10 kg, so the dose given equals to 1.22 mg/kg ZG0128), ZG0163 […] 3.49 L/kg. […] Pharmacokinetics of single-dose intragastric administration. […] mg/ZG0128). […] The plasma […] There were large individual differences in plasma exposure AUC0-t in dogs. The pharmacokinetic differences between genders could not be determined. […] increased proportionally with the increasing dosage. The average Tmax of metabolite ZG0245 was 2.0 h."}}, "data": [{"substance": "Jaktinib", "values": [{"measurement": "Fe0–120h in urine and feces, total of jaktinib and metabolites", "setting": "[1]", "result": 19.478, "unit": "%"}, {"measurement": "Feces-Fe0–120h, total of jaktinib and metabolites", "setting": "[1]", "result": 15.350, "unit": "%"}, {"measurement": "Urine-Fe0–120h, total of jaktinib and metabolites", "setting": "[1]", "result": 4.128, "unit": "%"}, {"measurement": "Feces-Fe0–120h, geometric mean", "setting": "[1]; n = 6", "result": 12.681, "unit": "%"}, {"measurement": "Total Fe0–120h (urine and feces)", "setting": "[1]; n = 6", "result": 12.813, "unit": "%"}, {"measurement": "Urine-Fe0–120h, geometric mean", "setting": "[1]; n = 6", "result": 0.132, "unit": "%"}, {"measurement": "effect on phosphorylation of c-Jun by JNK", "setting": "[2]", "result": "no significant effects"}, {"measurement": "AUC0-t (mean)", "setting": "[3]; 61 mg ZG0128", "result": 459, "unit": "ng·h/mL"}, {"measurement": "Cmax", "setting": "[3]; 61 mg ZG0128", "result": 156, "unit": "ng/mL"}, {"measurement": "absolute bioavailability", "setting": "[3]; 61 mg, by AUC0-t", "result": 27.2, "unit": "%"}, {"measurement": "AUC0-t (mean)", "setting": "[3]; 122 mg ZG0128", "result": 948, "unit": "ng·h/mL"}, {"measurement": "Cmax", "setting": "[3]; 122 mg ZG0128", "result": 266, "unit": "ng/mL"}, {"measurement": "AUC0-t (mean)", "setting": "[3]; 244 mg ZG0128", "result": 1728, "unit": "ng·h/mL"}, {"measurement": "Cmax", "setting": "[3]; 244 mg ZG0128", "result": 444, "unit": "ng/mL"}, {"measurement": "average Tmax", "setting": "[3]; 1, 2 and 4 tablets (61, 122, 244 mg ZG0128)", "result": 2.0, "unit": "h"}, {"measurement": "average t1/2, range over doses", "setting": "[3]; 61–244 mg", "result": "1.31 to 2.49", "unit": "h"}, {"measurement": "exposure as % of the medium dosage group (122 mg/animal)", "setting": "[3]; intragastric 122 mg ZG0128", "result": 93.0, "unit": "%"}, {"measurement": "Tmax", "setting": "[3]; intragastric 122 mg ZG0128 (compared with medium dosage tablet group)", "result": 1.50, "unit": "h"}]}]}
